The text below walks through data of article PMC6407204, “Oral administration of the cannabigerol derivative VCE-003.2 promotes subventricular zone neurogenesis and protects against mutant huntingtin-induced neurodegeneration” (Translational Neurodegeneration, 2019).

One series deals with T1, CYP1A (Homo sapiens, UniProt P05177).
T1 construct: from tissue; host or cells: human liver microsomes
Type of series: in vitro ADME. The conditions noted are these: Substrate = Etoxyresorufin, human liver microsomes. The protocol:
(§1) Supplementary file 40035_2019_148_MOESM2_ESM.pdf: Additional file 2: Cytochrome P450 Inhibition (IC50 Determination). CYP1A Inhibition. VCE-003.2 (0.1, 0.25, 1, 2.5, 10, 25 μM in DMSO; final DMSO concentration = 0.3%) was incubated with human liver microsomes (0.25 mg/mL) and NADPH (1 mM) in the presence of the probe substrate ethoxyresorufin (0.5 μM) for 5 min at 37 °C. The selective CYP1A inhibitor, alpha-naphthoflavone, was screened alongside the test compounds as a positive control. CYP2B6 Inhibition. VCE-003.2 (0.1, 0.25, 1, 2.5, 10, 25 μM in DMSO; final DMSO concentration = 0.3%) was incubated with human liver microsomes (0.1 mg/mL) and NADPH (1 mM) in the presence of the probe substrate bupropion (110 μM) for 5 min at 37 °C. The selective CYP2B6 inhibitor, ticlopidine, was screened alongside the test compounds as a positive control. CYP2C8 Inhibition. […] For the CYP1A incubations, the reactions were terminated by methanol, and the formation of the metabolite, resorufin, was monitored by fluorescence (excitation wavelength = 535 nm, emission wavelength = 595 nm). […] Hydroxybupropion, 6α-hydroxypaclitaxel and 6ß-hydroxytestosterone were analyzed separately by LC-MS/MS. […]

The test system of series [1] is relevant cytochrome P450 isoforms. It counts as in vitro ADME. The conditions noted are these: human liver microsomes, up to 25 μM. Here is the method: as §1
The test system of the next series is S. typhimurium TA100. In words: AMES reverse mutation assay, TA100. It counts as cell-based. Here is the method: Supplementary file 40035_2019_148_MOESM4_ESM.pdf: Additional file 4: AMES Data Summary. AMES Experimental Procedure. Approximately ten million bacteria are exposed in triplicate to VCE-003-.2 (7.8, 15.6, 31.3, 62.5, 125 and 250 μg/ml), a negative control (vehicle) and a positive control for 90 min in medium containing a low concentration of histidine (sufficient for about 2 doublings). The cultures were then diluted into indicator medium lacking histidine and dispensed into 48 wells of a 384 well plate (micro-plate format, MPF). The plate was incubated for 48 h at 37 °C, and the number of wells showing growth were counted and compared to the vehicle control. An increase in the number of colonies of at least two-fold over baseline (mean + SD of the vehicle control) and a dose response indicates a positive response. […] Where indicated, S9 fraction from the livers of Aroclor 1254-treated rats was included in the incubation at a final concentration of 4.5%. An NADPH-regenerating system is also included to ensure a steady supply of reducing equivalents. The strains used in this study were S. typhimurium TA98 (hisD3052, rfa, uvrB/pKM10 for detection of frame-shift mutations) and S. typhimurium TA100 ([…], rfa, uvrB/pKM101 for detection of base-pair substitutions). VCE-003.2 was assessed for its mutagenic potential in the AMES reverse mutation assay. This test was performed in the absence and presence of S9 metabolic activation. […] The positive controls all behaved as expected. (PDF 568 kb)

The subject of series [2] is S. typhimurium TA98 and S. typhimurium TA100. In words: AMES reverse mutation assay, overall statement. The conditions noted are these: absence and presence of S9 metabolic activation. Type of series: cell-based. Here is the method:
Supplementary file 40035_2019_148_MOESM4_ESM.pdf: Additional file 4: AMES Data Summary. AMES Experimental Procedure. Approximately ten million bacteria are exposed in triplicate to VCE-003-.2 (7.8, 15.6, 31.3, 62.5, 125 and 250 μg/ml), a negative control (vehicle) and a positive control for 90 min in medium containing a low concentration of histidine (sufficient for about 2 doublings). The cultures were then diluted into indicator medium lacking histidine and dispensed into 48 wells of a 384 well plate (micro-plate format, MPF). The plate was incubated for 48 h at 37 °C, and the number of wells showing growth were counted and compared to the vehicle control. An increase in the number of colonies of at least two-fold over baseline (mean + SD of the vehicle control) and a dose response indicates a positive response. […] Where indicated, S9 fraction from the livers of Aroclor 1254-treated rats was included in the incubation at a final concentration of 4.5%. An NADPH-regenerating system is also included to ensure a steady supply of reducing equivalents. The strains used in this study were S. typhimurium TA98 (hisD3052, rfa, uvrB/pKM10 for detection of frame-shift mutations) and S. typhimurium TA100 ([…], rfa, uvrB/pKM101 for detection of base-pair substitutions). VCE-003.2 was assessed for its mutagenic potential in the AMES reverse mutation assay. […]

Series [3] relates to osteoblast differentiation. The conditions noted are these: compared with full PPARγ-agonists; cited from earlier work.

Entries after “also recorded” stand apart in the source; their conditions may differ. A value given as a limit tells only on which side of the number the result lay.

T1 sequence (P05177 2-516 limits assumed): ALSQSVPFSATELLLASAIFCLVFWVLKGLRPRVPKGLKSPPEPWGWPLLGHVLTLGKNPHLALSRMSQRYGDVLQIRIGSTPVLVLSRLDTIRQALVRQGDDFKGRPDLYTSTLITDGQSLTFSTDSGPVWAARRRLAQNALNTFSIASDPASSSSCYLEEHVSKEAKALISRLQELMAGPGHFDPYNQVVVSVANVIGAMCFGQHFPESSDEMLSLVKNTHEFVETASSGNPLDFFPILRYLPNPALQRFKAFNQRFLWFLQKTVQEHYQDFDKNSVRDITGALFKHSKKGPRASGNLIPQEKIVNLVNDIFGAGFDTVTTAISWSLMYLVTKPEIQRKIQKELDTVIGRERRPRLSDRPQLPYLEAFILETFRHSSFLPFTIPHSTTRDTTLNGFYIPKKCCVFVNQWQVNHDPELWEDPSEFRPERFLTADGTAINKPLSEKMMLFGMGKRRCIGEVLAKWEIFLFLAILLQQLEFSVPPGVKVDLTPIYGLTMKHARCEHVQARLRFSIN

The compound `CCCCCC1=C(NCC)C(=O)C(CC=C(C)CCC=C(C)C)=C(O)C1=O` [VCE-003.2, 2-(3,7-dimethyl-octa-2,6-dienyl)-6-ethylamino-3-hydroxy-5-pentyl-(1,4) benzoquinone] gave an IC50 at CYP1A of more than 25 µM. Further, the “inhibition of cytochrome P450 isoforms (in words)” value in series [1] is reported as “did not inhibit significantly”. Also, the “AMES Result” value was “Negative” in the series with S. typhimurium TA100 (TA100, S9 no) and “Negative” in the series with S. typhimurium TA100 (TA100, S9 yes). Also, in series [2], the “genotoxicity in AMES assay (in words)” value was “not genotoxic; also recorded: negative for genotoxicity”. Also, in series [3], the “interference with osteoblast differentiation” value is listed as “does not interfere with osteoblast differentiation”.
